In article PMC10218941, “Design, Synthesis, Antiproliferative Actions, and DFT Studies of New Bis–Pyrazoline Derivatives as Dual EGFR/BRAF^V600E Inhibitors” (International Journal of Molecular Sciences, 2023):
“And” between values parts separate entries of the source, which are not always exact repeats. Identical values can stand only once. Like-named read-outs stand apart in the source and are kept apart here.

Columns and labels:
[1] = system: Panc-1 (pancreatic cancer cell line); test: Antiproliferative assay (MTT), Panc-1; assay type: cell-based; settings: Homo sapiens, read-out: Antiproliferative Activity IC50 ± SEM (µM) Panc-1
Method: (§1) The antiproliferative activity of pyrazoline hybrids 8–17 was tested against the four human cancer cell lines Panc-1 (pancreatic cancer cell line), MCF-7 (breast cancer cell line), HT-29 (colon cancer cell line), and A-549 (lung cancer cell line) using the MTT assay and doxorubicin as the reference drug. See Appendix SA (Supplementary File). […]
(§2) 4.2.1.2. Assay for antiproliferative effect
(§3) To explore the antiproliferative potential of compounds propidium iodide fluorescence assay was performed using different cell lines such as Panc -1 (pancreas cancer cell line), MCF-7 (breast cancer cell line), HT-29 (colon cancer cell line) and A-549 (epithelial cancer cell line), respectively. To calculate the total nuclear DNA, a fluorescent dye (propidium iodide, PI) is used which can attach to the DNA, thus offering a quick and precise technique. PI cannot pass through the cell membrane and its signal intensity can be considered as directly proportional to quantity of cellular DNA. Cells whose cell membranes are damaged or have changed permeability are counted as dead ones. The assay was performed by seeding the cells of different cell lines at a density of 3000-7500 cells/well (in200μl medium) in culture plates followed by incubation for 24h at 37 °C in humidified 5%CO2/95% air atmospheric conditions. The medium was removed; the compounds were added to the plates at 10 μM concentrations (in 0.1% DMSO) in triplicates, followed by incubation for 48h. DMSO (0.1%) was used as control. After incubation, medium was removed followed by the addition of PI (25 μl, 50μg/mL in water/medium) to each well of the plates. At - 80 °C, the plates were allowed to freeze for 24 h, followed by thawing at 25 °C. A fluorometer (Polar-Star BMG Tech) was used to record the readings at excitation and emission wavelengths of 530 and 620 nm for each well. The percentage cytotoxicity of compounds was calculated using […]
(§4) Where ATC= Absorbance of treated cells and AC= Absorbance of control. Erlotinib was used as positive control in the assay. […]

[2] = system: MCF-7 (breast cancer cell line); test: Antiproliferative assay (MTT), MCF-7; assay type: cell-based; settings: Homo sapiens, MCF7; read-out: Antiproliferative Activity IC50 ± SEM (µM) MCF-7
Method: (§5) The antiproliferative activity of pyrazoline hybrids 8–17 was tested against the four human cancer cell lines Panc-1 (pancreatic cancer cell line), MCF-7 (breast cancer cell line), HT-29 (colon cancer cell line), and A-549 (lung cancer cell line) using the MTT assay and doxorubicin as the reference drug. See Appendix SA (Supplementary File).
(§6) 4.2. Biological evaluation
(§7) 4.2.1. Cytotoxic activity using MTT Assay and evaluation of IC50 […]
(§8) 96-well flat-bottomed cell culture plates were used to seed the cells at a […]
(§9) of 10^4 cells mL-1. The medium was aspirated from all the wells of culture plates after 24 h followed by the addition of synthesized compounds (in 200 μL medium to yield a final concentration of 0.1% (v/v) dimethyl sulfoxide) into individual wells of the plates. Four wells were designated to a single compound. The plates were allowed to incubate at 37°C for 96 h. Afterwards, the medium was aspirated and 3 -[4,5-dimethylthiazol-2-yl]-2,5-diphenyltetrazolium bromide (MTT) (0.4 mg/mL) in medium was added to each well and subsequent ly incubated for 3 h. The medium was aspirated and 150 μL dimethyl sulfoxide (DMSO) was added to each well. The plates were vortexed followed by the measurement of absorbance at 540 nm on a microplate reader. The results were presented as inhibition (%) of proliferation in contrast to controls comprising 0.1% 4.2.1.2. Assay for antiproliferative effect
as §3, §4

[3] = system: four human cancer cell lines (A-549, MCF-7, Panc-1, HT-29); test: Antiproliferative assay, mean of four cancer cell lines (GI50); assay type: cell-based; settings: mean over A-549, MCF-7, Panc-1, HT-29
[4] = system: HT-29 (colon cancer cell line); test: Antiproliferative assay (MTT), HT-29; assay type: cell-based; settings: Homo sapiens, read-out: Antiproliferative Activity IC50 ± SEM (µM) HT-29
Method: as §1, §2, §3, §4

[5] = system: A-549 (lung cancer cell line); test: Antiproliferative assay (MTT), A-549; assay type: cell-based; settings: Homo sapiens, A549; read-out: Antiproliferative Activity IC50 ± SEM (µM) A-549
Method: as §5, §6, §7, §8, §9, §3, §4

EGFR [6] = target: T1, EGFR (Homo sapiens, UniProt P00533); test: EGFR inhibitory assay; assay type: biochemical; settings: read-out: EGFR Inhibition IC50 ± SEM
T1 construct: 645–1186); His6 (N); made in house; host or cells: Sf-9 insect cells (baculovirus; pBlueBacHis2B / pFASTBacHTc
T1 sequence (P00533 669-1210): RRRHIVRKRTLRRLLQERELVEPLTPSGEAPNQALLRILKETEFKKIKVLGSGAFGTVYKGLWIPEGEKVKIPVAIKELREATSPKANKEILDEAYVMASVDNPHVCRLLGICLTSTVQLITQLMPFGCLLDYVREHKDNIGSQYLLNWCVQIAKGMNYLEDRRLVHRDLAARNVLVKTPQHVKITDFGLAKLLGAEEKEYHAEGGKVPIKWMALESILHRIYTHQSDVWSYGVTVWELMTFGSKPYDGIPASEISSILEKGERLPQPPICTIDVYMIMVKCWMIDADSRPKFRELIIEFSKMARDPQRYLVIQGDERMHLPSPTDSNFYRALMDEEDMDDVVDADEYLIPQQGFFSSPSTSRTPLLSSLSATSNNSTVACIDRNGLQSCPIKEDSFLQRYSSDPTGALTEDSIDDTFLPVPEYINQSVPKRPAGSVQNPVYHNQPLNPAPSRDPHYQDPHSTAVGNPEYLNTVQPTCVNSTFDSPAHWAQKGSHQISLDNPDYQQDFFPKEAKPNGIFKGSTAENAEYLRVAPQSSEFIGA
Method: 4.2.2. EGFR inhibitory assay
Baculoviral expression vectors including pBlueBacHis2B and pFASTBacHTc were used […]
(1 picture or pasted object on this page, not shown here)
5ʹ upstream to the EGFR sequence comprised a sequence that encoded (His)6. Sf-9 cells were infected for 72h for protein expression. The pellets of Sf-9 cells were solubilized in a buffer containing sodium vanadate (100 μM), aprotinin (10 μg/mL), triton (1%), HEPES […]
centrifugation for 20 min.
Histidine-linked proteins were first eluted with 250 and then […]
enhancement solution was added to each well and the signal was recorded at excitation and […]
The autophosphorylation percentage inhibition by compounds was calculated using the following equation: […]

BRAF^V600E [7] = test: BRAF^V600E inhibitory assay
Target sequence in this assay (P28028 whole entry V585E): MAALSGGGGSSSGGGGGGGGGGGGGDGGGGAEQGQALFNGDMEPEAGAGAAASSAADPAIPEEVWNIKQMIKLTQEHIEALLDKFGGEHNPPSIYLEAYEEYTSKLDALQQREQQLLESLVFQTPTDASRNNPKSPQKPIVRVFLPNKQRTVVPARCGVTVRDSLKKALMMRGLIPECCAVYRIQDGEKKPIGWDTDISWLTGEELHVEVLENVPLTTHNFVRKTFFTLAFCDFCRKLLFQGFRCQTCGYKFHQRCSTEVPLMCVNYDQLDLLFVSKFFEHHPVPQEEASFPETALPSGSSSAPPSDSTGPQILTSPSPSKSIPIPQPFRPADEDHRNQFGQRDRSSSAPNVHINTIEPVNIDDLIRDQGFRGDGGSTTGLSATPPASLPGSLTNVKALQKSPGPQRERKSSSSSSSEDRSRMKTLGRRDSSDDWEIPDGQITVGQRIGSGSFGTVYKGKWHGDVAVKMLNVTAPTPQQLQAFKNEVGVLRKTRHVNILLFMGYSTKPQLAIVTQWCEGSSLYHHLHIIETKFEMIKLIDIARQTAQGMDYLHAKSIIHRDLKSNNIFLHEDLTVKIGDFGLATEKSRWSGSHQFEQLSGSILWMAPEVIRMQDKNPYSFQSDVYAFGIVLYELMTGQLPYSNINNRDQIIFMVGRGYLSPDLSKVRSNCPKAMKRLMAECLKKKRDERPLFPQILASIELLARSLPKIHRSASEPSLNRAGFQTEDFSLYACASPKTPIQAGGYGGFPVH
Method: V600E mutant BRAF kinase assay was performed to investigate the activity of tested compounds against BRAF. Mouse full-length GST-tagged BRAFV600E (7.5 ng, Invitrogen, PV3849) was pre-incubated with drug (1 µL) and assay dilution buffer (4 µL) for 60 min at 25 °C. In assay dilution buffer, a solution (5 µL) containing MgCl2 (30 mM), ATP (200 µM), recombinant human full length (200 ng) and N-terminal His-tagged MEK1 (Invitrogen) was added to start the assay, subsequent to incubation for 25 min at 25 °C. The assay was stopped using 5X protein denaturing buffer (LDS) solution (5 µL). To further denature the protein, heat (70° C) was applied for 5 min.
10 µL of each reaction was loaded into the precast plates and electrophoresis was allowed to proceed. After completion of electrophoresis, the front part of the precast gel plate (holding hot ATP) was cut and afterwards cast-off. The dried gel was developed using a phosphor screen.
served as positive control.

[8] = Cell viability assay (MTT) on normal mammary epithelial cells; assay type: cell-based; settings: human, MCF-10A normal mammary gland epithelial cells, MCF-10A cells, four days
Method: To test the viability of new substances, the epithelial (MCF-10A) cell line of the normal human mammary gland was used. Compounds 8–17 were incubated for four days on MCF-10A cells before being tested for viability using the MTT assay. According to Table 1, none of the substances tested were cytotoxic, and cell viability at 50 µM was greater than 87% for the compounds tested.
The normal human mammary gland epithelial (MCF-10A) cell line was used to test the viability of new compounds [46, 47]. See Appendix SA (Supplementary File).
as §6
4.2.1. Cytotoxic activity using MTT Assay and evaluation of IC50
MTT assay was performed to investigate the effect of the synthesized compounds on mammary epithelial cells (MCF-10A). The cells were propagated in medium consisting of Ham's F-12 medium/ Dulbecco's modified Eagle's medium (DMEM) (1:1) supplemented with 10% foetal calf serum, 2 mM glutamine, insulin (10 μg/mL), hydrocortisone (500 ng/mL) and epidermal growth factor (20 ng/mL). Trypsin ethylenediamine tetra acetic acid (EDTA) was used to passage the cells after every 2-3 days. 96-well flat-bottomed cell culture plates were used to seed the cells at a […]
as §9, with “The results were presented as inhibition (%) of proliferation in contrast to controls comprising 0.1% 4.2.1.2. Assay for antiproliferative effect” left out

EGFR [9] = target: T1, EGFR; design: method as in PMID 35424523; settings: cited from earlier work
BRAF^V600E [10] = system: BRAF^V600E; design: method as in PMID 35424523; settings: cited from earlier work

Question: With `COc1cccc2c1C(=O)c1c(O)c3c(c(O)c1C2=O)C[C@@](O)(C(=O)CO)C[C@@H]3O[C@H]1C[C@H](N)[C@H](O)[C@H](C)O1` [Doxorubicin, reference compound] as the molecule, how does the IC50 [1] read?
Answer: 1 ± 0.02 µM

Question: What about the IC50 [2] of the same molecule?
Answer: 0.9 ± 0.02 µM

Question: And the IC50 [3]?
Answer: 1.1 µM

Question: What about the IC50 [4] of the same molecule?
Answer: 1.2 ± 0.03 µM

Question: What about the IC50 [5] of the same molecule?
Answer: 1.4 ± 0.08 µM

Question: For `COc1ccc(C2CC(c3ccc(OCC(=O)Nc4ccc(C5=NNC(c6ccc(Br)cc6)C5)cc4)cc3)=NN2)cc1` (stereo not shown) [Compound 14, 2-(4-(5-(4-Methoxyphenyl)-4,5-dihydro-1H-pyrazol-3-yl)phenoxy)-N-(4-(5-(4-bromophenyl)-4,5-dihydro-1H-pyrazol-3-yl)phenyl)acetamide], which IC50 [1] is on record?
Answer: 2 ± 0.1 µM

Question: What about the IC50 [2] of the same molecule?
Answer: 1.6 ± 0.1 µM

Question: What about the IC50 (EGFR [6]) of the same molecule?
Answer: 0.104 ± 0.009 µM

Question: What about the IC50 (BRAF^V600E [7]) of the same molecule?
Answer: 0.125 ± 0.01 µM

Question: And the IC50 [3]?
Answer: 1.85 µM

Question: And the IC50 [4]?
Answer: 2 ± 0.1 µM

Question: What about the IC50 [5] of the same molecule?
Answer: 1.8 ± 0.1 µM

Question: And the viability at 96 h, 50 µM [8]?
Answer: 89%

Question: What does the source list for `COc1ccc(C2CC(c3ccc(OCC(=O)Nc4ccc(C5=NNC(c6ccc(Cl)cc6)C5)cc4)cc3)=NN2)cc1` (stereo not shown) [Compound 15, 2-(4-(5-(4-Methoxyphenyl)-4,5-dihydro-1H-pyrazol-3-yl)phenoxy)-N-(4-(5-(4-chlorophenyl)-4,5-dihydro-1H-pyrazol-3-yl)phenyl)acetamide]?
Answer: IC50 [1]: 1.7 ± 0.1 µM; IC50 [2]: 1.2 ± 0.1 µM; IC50 (EGFR [6]): 0.093 ± 0.007 µM; IC50 (BRAF^V600E [7]): 0.098 ± 0.008 µM; IC50 [3]: 1.5 µM; IC50 [4]: 1.7 ± 0.1 µM; IC50 [5]: 1.4 ± 0.1 µM; viability at 96 h, 50 µM [8]: 90%

Question: With `O=C(COc1ccc(C2=NNC(c3ccc(Cl)cc3)C2)cc1)Nc1ccc(C2=NNC(c3ccc(Br)cc3)C2)cc1` (stereo not shown) [Compound 10, 2-(4-(5-(4-Chlorophenyl)-4,5-dihydro-1H-pyrazol-3-yl)phenoxy)-N-(4-(5-(4-bromophenyl)-4,5-dihydro-1H-pyrazol-3-yl)phenyl)acetamide] as the molecule, how does the IC50 [1] read?
Answer: 3.2 ± 0.3 µM

Question: And the IC50 [2]?
Answer: 2.9 ± 0.2 µM

Question: What about the IC50 [3] of the same molecule?
Answer: 3.1 µM

Question: What about the IC50 [4] of the same molecule?
Answer: 3.1 ± 0.3 µM

Question: What about the IC50 [5] of the same molecule?
Answer: 3.2 ± 0.3 µM

Question: And the viability at 96 h, 50 µM [8]?
Answer: 89%

Question: Which results are given for `COc1ccc(C2CC(c3ccc(OCC(=O)Nc4ccc(C5=NNC(c6ccc(C)cc6C)C5)cc4)cc3)=NN2)cc1` (stereo not shown) [Compound 13, 2-(4-(5-(4-Methoxyphenyl)-4,5-dihydro-1H-pyrazol-3-yl)phenoxy)-N-(4-(5-(2,4-dimethylphenyl)-4,5-dihydro-1H-pyrazol-3-yl)phenyl)acetamide]?
Answer: IC50 [1]: 4.9 ± 0.4 µM; IC50 [2]: 4.6 ± 0.4 µM; IC50 [3]: 4.8 µM; IC50 [4]: 5 ± 0.4 µM; IC50 [5]: 4.8 ± 0.4 µM; viability at 96 h, 50 µM [8]: 87%

Question: With `Cc1c(NC2=NC(=O)CS2)c(=O)n(-c2ccccc2)n1C` [I] as the molecule, how does the IC50 (EGFR [9]) read?
Answer: 0.022 µM and 0.02 µM

Question: And the IC50 (BRAF^V600E [10])?
Answer: 2.03 µM

Question: Which results are given for `COc1ccc(C2CC(c3ccc(OCC(=O)Nc4ccc(C5=NNC(c6ccc(F)cc6)C5)cc4)cc3)=NN2)cc1` (stereo not shown) [Compound 16, 2-(4-(5-(4-Methoxyphenyl)-4,5-dihydro-1H-pyrazol-3-yl)phenoxy)-N-(4-(5-(4-fluorophenyl)-4,5-dihydro-1H-pyrazol-3-yl)phenyl)acetamide]?
Answer: IC50 [1]: 3.8 ± 0.3 µM; IC50 [2]: 3.5 ± 0.3 µM; IC50 [3]: 3.7 µM; IC50 [4]: 3.9 ± 0.3 µM; IC50 [5]: 3.7 ± 0.3 µM; viability at 96 h, 50 µM [8]: 89%

Question: Which results are given for `COc1ccc(C2CC(c3ccc(NC(=O)COc4ccc(C5=NNC(c6ccc(Cl)cc6)C5)cc4)cc3)=NN2)cc1` (stereo not shown) [Compound 9, 2-(4-(5-(4-Chlorophenyl)-4,5-dihydro-1H-pyrazol-3-yl)phenoxy)-N-(4-(5-(4-methoxyphenyl)-4,5-dihydro-1H-pyrazol-3-yl)phenyl)acetamide]?
Answer: IC50 [1]: 2.6 ± 0.2 µM; IC50 [2]: 1.9 ± 0.1 µM; IC50 [3]: 2.3 µM; IC50 [4]: 2.5 ± 0.2 µM; IC50 [5]: 2.2 ± 0.2 µM; viability at 96 h, 50 µM [8]: 89%

Question: Which IC50 [1] does the source give for `O=C(COc1ccc(C2=NNC(c3ccc(Cl)cc3)C2)cc1)Nc1ccc(C2=NNC(c3ccccc3)C2)cc1` (stereo not shown) [Compound 8, 2-(4-(5-(4-Chlorophenyl)-4,5-dihydro-1H-pyrazol-3-yl)phenoxy)-N-(4-(5-phenyl-4,5-dihydro-1H-pyrazol-3-yl)phenyl)acetamide] here?
Answer: 4.6 ± 0.4 µM

Question: And the IC50 [2]?
Answer: 4.1 ± 0.4 µM

Question: What about the IC50 [3] of the same molecule?
Answer: 4.4 µM

Question: What about the IC50 [4] of the same molecule?
Answer: 4.5 ± 0.4 µM

Question: What about the IC50 [5] of the same molecule?
Answer: 4.3 ± 0.4 µM

Question: What about the viability at 96 h, 50 µM [8] of the same molecule?
Answer: 90%

Question: Which IC50 (EGFR [9]) does the source give for `Cc1c(Nc2nc3c(C(=O)NN)c(N)sc3s2)c(=O)n(-c2ccccc2)n1C` [II] here?
Answer: 0.02 µM

Question: And the IC50 (BRAF^V600E [10])?
Answer: 0.088 µM and 0.09 µM

Question: Which IC50 [1] does the source give for `O=C(COc1ccc(C2=NNC(c3ccc(Cl)cc3)C2)cc1)Nc1ccc(C2=NNC(c3ccc(Cl)cc3)C2)cc1` (stereo not shown) [Compound 11, 2-(4-(5-(4-Chlorophenyl)-4,5-dihydro-1H-pyrazol-3-yl)phenoxy)-N-(4-(5-(4-chlorophenyl)-4,5-dihydro-1H-pyrazol-3-yl)phenyl)acetamide] here?
Answer: 2.9 ± 0.2 µM

Question: And the IC50 [2]?
Answer: 2.7 ± 0.2 µM

Question: And the IC50 [3]?
Answer: 2.9 µM

Question: And the IC50 [4]?
Answer: 3 ± 0.2 µM

Question: What about the IC50 [5] of the same molecule?
Answer: 2.9 ± 0.2 µM

Question: And the viability at 96 h, 50 µM [8]?
Answer: 87%
